According to ChEMBL document CHEMBL2396566, “Development of a novel class of pyrrolo-[1,2,5]benzothiadiazepine derivatives as potential anti-schistosomal agents” (2013):

Assays:
Assay type in all cases: functional
[1] = tested on: Schistosoma japonicum; assay: Antiparasitic activity against Schistosoma japonicum assessed as worm survival at 50 uM incubated for 16 hrs measured after 24 hrs
[2] = tested on: Schistosoma japonicum; assay: Antiparasitic activity against Schistosoma japonicum adult worm infected in ICR mouse assessed as worm reduction at 200 mg/kg, po administered for 3 days measured after 21 days; parameters: scale not given: the % may be the effect or the level left
[3] = tested on: Schistosoma japonicum; assay: Antiparasitic activity against Schistosoma japonicum assessed as worm survival at 50 uM incubated for 16 hrs measured after 72 hrs
[4] = tested on: Schistosoma japonicum; assay: Antiparasitic activity against Schistosoma japonicum assessed as worm survival at 50 uM incubated for 16 hrs measured after 48 hrs

Row | SMILES | survival at 50 µM [1] [%] | Activity [2] [%] | survival at 50 µM [3] [%] | survival at 50 µM [4] [%]
1 | CN1c2ccccc2N=Cc2cccn21 | 100 | 6.1 | 83.3 | 100
2 | CCOC(=O)C1Nc2ccccc2[S+]([O-])n2cccc21 (configuration not stated) | 100 |  | 100 | 100
3 | CCOC(=O)C1Nc2ccccc2Cn2cccc21 (configuration not stated) | 100 | 74.2 | 83.3 | 100
4 | CCOC(=O)C1Nc2ccccc2Nn2cccc21 (configuration not stated) | 100 |  | 100 | 100
5 | O=C(O)C1Nc2ccccc2S(=O)(=O)n2cccc21 (configuration not stated) | 100 |  | 100 | 100
6 | CCOC(=O)C1Nc2ccccc2S(=O)(=O)n2cccc21 (configuration not stated) | 100 |  | 100 | 100
7 | CCOC(=O)C1Nc2ccccc2Sn2c(Br)ccc21 (configuration not stated) | 100 | 12 | 66.7 | 100
8 | CCOC(=O)C1Nc2ccccc2Sn2c(Cl)ccc21 (configuration not stated) | 100 | 51.5 | 33.3 | 83.3
9 | CC1=Nc2ccccc2N(C)n2cccc21 | 100 | 24.2 | 83.3 | 100
10 | O=C(C1CCCCC1)N1CC(=O)N2CCc3ccccc3C2C1 (configuration not stated) [PRAZIQUANTEL] | 66.7 | 96.9 | 33.3 | 33.3
11 | CCOC(=O)C1Nc2ccccc2Sn2cccc21 (configuration not stated) | 100 | 4.5 | 16.7 | 66.7
12 | CCOC(=O)C1Nc2ccccc2N(C)n2cccc21 (configuration not stated) | 100 | 34.8 | 83.3 | 100
13 | O=C1Nc2ccccc2Sn2cccc21 | 100 |  | 100 | 100
